Source: patent US20180298405A1, “METHODS AND COMPOSITIONS TO INCREASE HUMAN SOMATIC CELL NUCLEAR TRANSFER (SCNT) EFFICIENCY BY REMOVING HISTONE H3-LYSINE TRIMETHYLATION, AND DERIVATION OF HUMAN NT-ESC” (CHILDREN'S MEDICAL CENTER CORPORATION, priority 2015, published 2018)

Tested on: reprogramming resistant regions (RRRs) / ZGA genes
Assay: RNA-seq of late 8-cell human SCNT embryos with or without KDM4A mRNA injection (ZGA of RRRs, KDM4A-responsive genes)
Type: cell-based
Excerpt: A sliding window (size 20 kb, step size 10 kb) was used to assess the genome-wide expression level of 4-cell and 8-cell human embryos. For each window, the expression level was quantified with normalized RPM (reads per millions of uniquely mapped reads). […] These activated regions were classed into three groups based on their expression differences in human SCNT and IVF 8-cell embryos.
The SCNT embryos used for ZGA analysis were generated using oocytes donated by a single healthy person (#64) and dermal fibroblast cells from an AMD patient (DFB-8). SCNT and IVF embryos were cultured up to late 8-cell stage, when the compaction of blastomeres is initiated, then they were treated briefly with acid Tyrode solution to remove zona pellucida. To prepare for the 8-cell SCNT embryo, oocytes from a single oocyte donor, and skin fibroblast cells from a single somatic nuclear donor were used. All the procedures are the same as described in the “Human SCNT procedure and KMD4A mRNA injection” section. Only embryos that reached the late 8-cell stage synchronically 74 hours post activation were collected and used for this experiment.
For preparation of the control IVF embryos, several donated early 8-cell stage IVF embryos were thawed and cultured for 5-7 hours to allow them to reach late 8-cell stage before being processed. After removal of the zona pellucida, the denuded embryos were washed 3 times in PBS, loaded into RNAse and DNAse free PCR tubes, spin downed, and snap frozen in liquid nitrogen. Then, they were kept at −80° C. until use. As controls, dermal fibroblast cells of somatic nuclear donors were also prepared. Those fibroblast cells were cultured in a 25 cm^2 flask in DMEM 10% FBS, and approximately 10,000 cells/donor were collected, snap frozen, and stored at −80° C. until use.
Five 8-cell embryos for each group were directly lysed and used for cDNA synthesis using SMART-Seq v4 Ultra Low Input RNA Kit (Clontech). For MEF donor, 10 ng total RNA was used for cDNA synthesis using SMART-Seq v4 Ultra Low Input RNA Kit. After amplification, the cDNA samples were fragmented using Covaris sonicator M220 to an average size of 150 bp (Covaris). Sequencing libraries were made with the fragmented DNA using NEBNext Ultra DNA Library Prep Kit for Illumina according to manufacturer's instruction (New England Biolabs) with different barcodes. For each RNA-seq analysis of hESCs, 1 μg total RNA was used for mRNA purification. Barcoded RNA-seq libraries were generated using NEBNext Ultra Directional RNA Library Prep Kit for Illumina (New England Biolabs). Single end 50 bp sequencing was performed on a HiSeq 2500 sequencer (Illumina). Sequencing reads were mapped to the human genome (hg19) with Tophat2. All programs were performed with default settings (unless otherwise specified). At least 22 million uniquely mapped reads were obtained for each sequencing library, and subsequently assembled into transcripts guided by the reference annotation (Refseq gene models) with Cufflinks v2.0.2. Expression level of each gene was quantified with normalized FPKM (fragments per kilobase of exon per million mapped fragments). Statistical analyses were performed with R (available at: “www.r-project.org/”). Independent 2 group Wilcoxon rank sum tests were used to compare distributions using the wilcox.test function in R. Pearson's r coefficient was calculated using the cor function with default parameters. The hierarchical clustering analysis of the global gene expression pattern in different samples was carried out using heatmap.2 function (gplots package) in R.

Substance: KDM4A mRNA: in vitro transcribed mRNA of full length human KDM4A/JHDM3A cDNA, an H3K9me3 demethylase (SEQ ID NO: 1)
- ZNF826P Fold Change (log2) [KDM4A SCNT/Control SCNT] (8-cell embryos): 2.67 log2
- ZNHIT6 Fold Change (log2) [KDM4A SCNT/Control SCNT] (8-cell embryos): 1.58 log2
- 12-Sep Expression level (FPKM) (KDM4A SCNT 8-cell embryos): 0.3 FPKM
- AASDH Expression level (FPKM) (KDM4A SCNT 8-cell embryos): 2.84 FPKM
- ACBD5 Expression level (FPKM) (KDM4A SCNT 8-cell embryos): 1.62 FPKM
- ALG5 Expression level (FPKM) (KDM4A SCNT 8-cell embryos): 9.71 FPKM
- ALPPL2 Expression level (FPKM) (KDM4A SCNT 8-cell embryos): 3.65 FPKM
- APOC1P1 Expression level (FPKM) (KDM4A SCNT 8-cell embryos): 0.43 FPKM
- ATP5J2-PTCD1 Expression level (FPKM) (KDM4A SCNT 8-cell embryos): 4.51 FPKM
- BEX2 Expression level (FPKM) (KDM4A SCNT 8-cell embryos): 2.68 FPKM
- BLVRB Expression level (FPKM) (KDM4A SCNT 8-cell embryos): 2.11 FPKM
- BTAF1 Expression level (FPKM) (KDM4A SCNT 8-cell embryos): 1.46 FPKM
- BTK Expression level (FPKM) (KDM4A SCNT 8-cell embryos): 1.67 FPKM
- BUD31 Expression level (FPKM) (KDM4A SCNT 8-cell embryos): 76.07 FPKM
- C1D Expression level (FPKM) (KDM4A SCNT 8-cell embryos): 97 FPKM
- C2orf74 Expression level (FPKM) (KDM4A SCNT 8-cell embryos): 0.41 FPKM
- C11orf67 Expression level (FPKM) (KDM4A SCNT 8-cell embryos): 28.21 FPKM
- C12orf60 Expression level (FPKM) (KDM4A SCNT 8-cell embryos): 46.22 FPKM
- C16orf91 Expression level (FPKM) (KDM4A SCNT 8-cell embryos): 9.96 FPKM
- C17orf89 Expression level (FPKM) (KDM4A SCNT 8-cell embryos): 0.75 FPKM
- C18orf56 Expression level (FPKM) (KDM4A SCNT 8-cell embryos): 0.33 FPKM
- C20orf7 Expression level (FPKM) (KDM4A SCNT 8-cell embryos): 2.28 FPKM
- CAB39L Expression level (FPKM) (KDM4A SCNT 8-cell embryos): 4.06 FPKM
- CCAR1 Expression level (FPKM) (KDM4A SCNT 8-cell embryos): 4.62 FPKM
- CCDC86 Expression level (FPKM) (KDM4A SCNT 8-cell embryos): 2.88 FPKM
- CCL2 Expression level (FPKM) (KDM4A SCNT 8-cell embryos): 6.1 FPKM
- CCL15 Expression level (FPKM) (KDM4A SCNT 8-cell embryos): 0.89 FPKM
- CELA3B Expression level (FPKM) (KDM4A SCNT 8-cell embryos): 0.49 FPKM
- CENPC1 Expression level (FPKM) (KDM4A SCNT 8-cell embryos): 7.41 FPKM
- CLC Expression level (FPKM) (KDM4A SCNT 8-cell embryos): 13.82 FPKM
- CLDN6 Expression level (FPKM) (KDM4A SCNT 8-cell embryos): 3.54 FPKM
- CLK4 Expression level (FPKM) (KDM4A SCNT 8-cell embryos): 19.9 FPKM
- CNKSR3 Expression level (FPKM) (KDM4A SCNT 8-cell embryos): 0.29 FPKM
- CNPY4 Expression level (FPKM) (KDM4A SCNT 8-cell embryos): 5.19 FPKM
- COX7B2 Expression level (FPKM) (KDM4A SCNT 8-cell embryos): 0.79 FPKM
- COX17 Expression level (FPKM) (KDM4A SCNT 8-cell embryos): 26.62 FPKM
- CSAG1 Expression level (FPKM) (KDM4A SCNT 8-cell embryos): 2.22 FPKM
- CSTF3 Expression level (FPKM) (KDM4A SCNT 8-cell embryos): 28.96 FPKM
- CUL2 Expression level (FPKM) (KDM4A SCNT 8-cell embryos): 14.32 FPKM
- CXorf61 Expression level (FPKM) (KDM4A SCNT 8-cell embryos): 0.85 FPKM
- DDX26B Expression level (FPKM) (KDM4A SCNT 8-cell embryos): 1.77 FPKM
- DEFB122 Expression level (FPKM) (KDM4A SCNT 8-cell embryos): 0.61 FPKM
- DLEU7 Expression level (FPKM) (KDM4A SCNT 8-cell embryos): 2.91 FPKM
- DNASE2 Expression level (FPKM) (KDM4A SCNT 8-cell embryos): 0.61 FPKM
- DRAM1 Expression level (FPKM) (KDM4A SCNT 8-cell embryos): 0.63 FPKM
- ECE2 Expression level (FPKM) (KDM4A SCNT 8-cell embryos): 1.18 FPKM
- EIF1AD Expression level (FPKM) (KDM4A SCNT 8-cell embryos): 9.43 FPKM
- ELL2 Expression level (FPKM) (KDM4A SCNT 8-cell embryos): 1.39 FPKM
- FAM9A Expression level (FPKM) (KDM4A SCNT 8-cell embryos): 1.32 FPKM
- FAM19A3 Expression level (FPKM) (KDM4A SCNT 8-cell embryos): 1.7 FPKM
- FAM83D Expression level (FPKM) (KDM4A SCNT 8-cell embryos): 2.53 FPKM
- FAM133B Expression level (FPKM) (KDM4A SCNT 8-cell embryos): 6.06 FPKM
- FAM151A Expression level (FPKM) (KDM4A SCNT 8-cell embryos): 1.01 FPKM
- FAM162A Expression level (FPKM) (KDM4A SCNT 8-cell embryos): 19.35 FPKM
- FAM200A Expression level (FPKM) (KDM4A SCNT 8-cell embryos): 1.23 FPKM
- FASTKD5 Expression level (FPKM) (KDM4A SCNT 8-cell embryos): 4.41 FPKM
- FBXL12 Expression level (FPKM) (KDM4A SCNT 8-cell embryos): 1.8 FPKM
- FMR1NB Expression level (FPKM) (KDM4A SCNT 8-cell embryos): 0.18 FPKM
- FOXN2 Expression level (FPKM) (KDM4A SCNT 8-cell embryos): 5.53 FPKM
- GALM Expression level (FPKM) (KDM4A SCNT 8-cell embryos): 3.67 FPKM
- GIP Expression level (FPKM) (KDM4A SCNT 8-cell embryos): 12.94 FPKM
- GJA1 Expression level (FPKM) (KDM4A SCNT 8-cell embryos): 1.64 FPKM
- GOLGB1 Expression level (FPKM) (KDM4A SCNT 8-cell embryos): 1.36 FPKM
- GUCA1B Expression level (FPKM) (KDM4A SCNT 8-cell embryos): 0.83 FPKM
- GUSBP1 Expression level (FPKM) (KDM4A SCNT 8-cell embryos): 7.96 FPKM
- GUSBP4 Expression level (FPKM) (KDM4A SCNT 8-cell embryos): 2.42 FPKM
- H3F3A Expression level (FPKM) (KDM4A SCNT 8-cell embryos): 14.47 FPKM
- IFI30 Expression level (FPKM) (KDM4A SCNT 8-cell embryos): 25.62 FPKM
- IL13RA2 Expression level (FPKM) (KDM4A SCNT 8-cell embryos): 0.26 FPKM
- KHDC1 Expression level (FPKM) (KDM4A SCNT 8-cell embryos): 85.25 FPKM
- KHDC1L Expression level (FPKM) (KDM4A SCNT 8-cell embryos): 668.53 FPKM
- KITLG Expression level (FPKM) (KDM4A SCNT 8-cell embryos): 0.93 FPKM
- KLF17 Expression level (FPKM) (KDM4A SCNT 8-cell embryos): 8.4 FPKM
- KLK4 Expression level (FPKM) (KDM4A SCNT 8-cell embryos): 1.41 FPKM
- KLK11 Expression level (FPKM) (KDM4A SCNT 8-cell embryos): 7.07 FPKM
- KPTN Expression level (FPKM) (KDM4A SCNT 8-cell embryos): 6.84 FPKM
- LARP6 Expression level (FPKM) (KDM4A SCNT 8-cell embryos): 0.41 FPKM
- LEMD3 Expression level (FPKM) (KDM4A SCNT 8-cell embryos): 0.59 FPKM
- LIM2 Expression level (FPKM) (KDM4A SCNT 8-cell embryos): 2.01 FPKM
- LINC00263 Expression level (FPKM) (KDM4A SCNT 8-cell embryos): 3.81 FPKM
- LOC284408 Expression level (FPKM) (KDM4A SCNT 8-cell embryos): 1.36 FPKM
- LOC347411 Expression level (FPKM) (KDM4A SCNT 8-cell embryos): 1.62 FPKM
- LOC401397 Expression level (FPKM) (KDM4A SCNT 8-cell embryos): 11.19 FPKM
- LOC643955 Expression level (FPKM) (KDM4A SCNT 8-cell embryos): 3.18 FPKM
- LOC653513 Expression level (FPKM) (KDM4A SCNT 8-cell embryos): 1.03 FPKM
- LOC723809 Expression level (FPKM) (KDM4A SCNT 8-cell embryos): 3.84 FPKM
- LOC100129515 Expression level (FPKM) (KDM4A SCNT 8-cell embryos): 9.35 FPKM
- LOC100289211 Expression level (FPKM) (KDM4A SCNT 8-cell embryos): 8.18 FPKM
- LOC100505854 Expression level (FPKM) (KDM4A SCNT 8-cell embryos): 4.77 FPKM
- LOC100506305 Expression level (FPKM) (KDM4A SCNT 8-cell embryos): 0.91 FPKM
- LOC100506668 Expression level (FPKM) (KDM4A SCNT 8-cell embryos): 8.79 FPKM
- LUC7L Expression level (FPKM) (KDM4A SCNT 8-cell embryos): 2.91 FPKM
- M1 Expression level (FPKM) (KDM4A SCNT 8-cell embryos): 2.52 FPKM
- MAGEA12 Expression level (FPKM) (KDM4A SCNT 8-cell embryos): 0.25 FPKM
- MAGEB2 Expression level (FPKM) (KDM4A SCNT 8-cell embryos): 0.79 FPKM
- MATR3 Expression level (FPKM) (KDM4A SCNT 8-cell embryos): 9.43 FPKM
- MED31 Expression level (FPKM) (KDM4A SCNT 8-cell embryos): 27.22 FPKM
- MFSD11 Expression level (FPKM) (KDM4A SCNT 8-cell embryos): 7.94 FPKM
- MPV17L2 Expression level (FPKM) (KDM4A SCNT 8-cell embryos): 4.48 FPKM
- MRPL28 Expression level (FPKM) (KDM4A SCNT 8-cell embryos): 1.56 FPKM
- MTERF Expression level (FPKM) (KDM4A SCNT 8-cell embryos): 3.15 FPKM
- NANOGNB Expression level (FPKM) (KDM4A SCNT 8-cell embryos): 30.92 FPKM
- NDUFAF2 Expression level (FPKM) (KDM4A SCNT 8-cell embryos): 6.37 FPKM
- NMNAT1 Expression level (FPKM) (KDM4A SCNT 8-cell embryos): 3.71 FPKM
